PubChem BioAssay (NCI)
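Dose response: 5 concentrations. Exposure: 48 h. Format: 96-well plates. Endpoint: linear interpolation; highest concentration if not reached. At the TGI there is no net growth.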

Experiments:
Assay in all cases: NCI-60 cell line screen, 48 h
[1] = test system: 786-0 renal
[2] = test system: A498 renal
[3] = test system: A549 NSCLC
[4] = test system: ACHN renal
[5] = test system: BT-549 breast
[6] = test system: COLO 205 colon
[7] = test system: DU-145 prostate
[8] = test system: EKVX NSCLC
[9] = test system: HCC-2998 colon
[10] = test system: HCT-116 colon
[11] = test system: HCT-15 colon
[12] = test system: HOP-62 NSCLC
[13] = test system: HS 578T breast
[14] = test system: IGROV1 ovarian
[15] = test system: K-562 leukemia
[16] = test system: KM12 colon
[17] = test system: LOX IMVI melanoma
[18] = test system: M14 melanoma
[19] = test system: MCF7 breast
[20] = test system: MDA-MB-231 breast
[21] = test system: MDA-MB-435
[22] = test system: MDA-N
[23] = test system: MOLT-4 leukemia
[24] = test system: NCI-H226 lung
[25] = test system: NCI-H23 lung
[26] = test system: NCI-H460 lung
[27] = test system: NCI/ADR-RES ovarian
[28] = test system: OVCAR-3 ovarian
[29] = test system: OVCAR-4 ovarian
[30] = test system: OVCAR-5 ovarian
[31] = test system: OVCAR-8 ovarian
[32] = test system: PC-3 prostate
[33] = test system: RPMI-8226 leukemia
[34] = test system: RXF 393 renal
[35] = test system: SF-268 CNS
[36] = test system: SF-295 CNS
[37] = test system: SK-MEL-2 melanoma
[38] = test system: SK-MEL-28 melanoma
[39] = test system: SK-OV-3 ovarian
[40] = test system: SN12C renal
[41] = test system: SNB-19 CNS
[42] = test system: SNB-75 CNS
[43] = test system: SR leukemia
[44] = test system: SW-620 colon
[45] = test system: T-47D breast
[46] = test system: TK-10 renal
[47] = test system: U251 CNS
[48] = test system: UACC-257 melanoma
[49] = test system: UACC-62 melanoma
[50] = test system: UO-31 renal
[51] = test system: CAKI-1 renal
[52] = test system: HL-60(TB) leukemia
[53] = test system: HOP-92 NSCLC
[54] = test system: HT29 colon
[55] = test system: MALME-3M melanoma
[56] = test system: SF-539 CNS

O=C(O)c1ccc(N=C(C(=Nc2ccc(C(=O)O)cc2)c2ccccc2)c2ccccc2)cc1
TGI [1]: > 100 µM
TGI [2]: > 100 µM
TGI [3]: > 100 µM
TGI [4]: > 100 µM
TGI [5]: > 100 µM
TGI [6]: > 100 µM
TGI [7]: > 100 µM
TGI [8]: > 100 µM
TGI [9]: > 100 µM
TGI [10]: > 100 µM
TGI [11]: > 100 µM
TGI [12]: > 100 µM
TGI [13]: > 100 µM
TGI [14]: > 100 µM
TGI [15]: > 100 µM
TGI [16]: > 100 µM
TGI [17]: > 100 µM
TGI [18]: > 100 µM
TGI [19]: > 100 µM
TGI [20]: > 100 µM
TGI [21]: > 100 µM
TGI [22]: > 100 µM
TGI [23]: > 100 µM
TGI [24]: > 100 µM
TGI [25]: > 100 µM
TGI [26]: > 100 µM
TGI [27]: > 100 µM
TGI [28]: > 100 µM
TGI [29]: > 100 µM
TGI [30]: > 100 µM
TGI [31]: > 100 µM
TGI [32]: > 100 µM
TGI [33]: > 100 µM
TGI [34]: > 100 µM
TGI [35]: > 100 µM
TGI [36]: > 100 µM
TGI [37]: > 100 µM
TGI [38]: > 100 µM
TGI [39]: > 100 µM
TGI [40]: > 100 µM
TGI [41]: > 100 µM
TGI [42]: > 100 µM
TGI [43]: > 100 µM
TGI [44]: > 100 µM
TGI [45]: > 100 µM
TGI [46]: > 100 µM
TGI [47]: > 100 µM
TGI [48]: > 100 µM
TGI [49]: > 100 µM
TGI [50]: > 100 µM

CNc1ccc(C(=O)CC(O)CCC(C)C2OC(=O)CC(O)CC(=O)CC(O)CC(O)CC(O)CC(O)CC3(O)CC(O)C(C(=O)NCCN(C)C)C(CC(OC4OC(C)C(O)C(NC(=O)CN5CCN(C)CC5)C4O)/C=C/C=C/C=C/C=C\C=C/C=C/C=C/C2C)O3)cc1 (centres undefined)
TGI [1]: > 100 µM
TGI [2]: 7.8 µM
TGI [3]: > 100 µM
TGI [5]: > 100 µM
TGI [51]: > 100 µM
TGI [6]: > 100 µM
TGI [7]: > 100 µM
TGI [11]: > 100 µM
TGI [52]: > 100 µM
TGI [12]: > 100 µM
TGI [53]: > 100 µM
TGI [54]: 9.92 µM
TGI [14]: > 100 µM
TGI [15]: > 100 µM
TGI [18]: > 100 µM
TGI [55]: 8.91 µM
TGI [20]: > 100 µM
TGI [21]: > 100 µM
TGI [22]: > 100 µM
TGI [23]: > 100 µM
TGI [24]: > 100 µM
TGI [25]: > 100 µM
TGI [26]: > 100 µM
TGI [27]: > 100 µM
TGI [29]: > 100 µM
TGI [30]: > 100 µM
TGI [31]: > 100 µM
TGI [32]: > 100 µM
TGI [34]: > 100 µM
TGI [35]: > 100 µM
TGI [36]: > 100 µM
TGI [56]: > 100 µM
TGI [37]: > 100 µM
TGI [38]: 45.7 µM
TGI [39]: > 100 µM
TGI [40]: > 100 µM
TGI [42]: > 100 µM
TGI [44]: > 100 µM
TGI [45]: > 100 µM
TGI [46]: > 100 µM
TGI [47]: > 100 µM
TGI [48]: 71 µM
TGI [49]: > 100 µM
TGI [50]: > 100 µM
